Test results as given in patent US8158158B2, “Composite biocidal particles” (Arch Chemicals, Inc., priority 1998, dated 2012).
Where two headings read alike, the source gives them in different places.

How the values were obtained:
[1] = cited from earlier work; for solubility: background statement
hard and soft fouling = assay: Antifouling efficacy of paint on fiberglass panels submerged in seawater; type: in vivo; details: single biocide, explanatory statement
Description: The antifouling efficacy of the composition of Example 1 was evaluated by mixing […] of it into 90 grams of a paint base. The commercial paint comprised:
This paint was painted onto fiberglass panels (8″×10″) and (12″×6″), which were then submerged in seawater for eight months (and running) in Miami, Fla.

| Compound | solubility [1] | water solubility ([1]; water) | water solubility ([1]; in seawater) | efficacy against algae (hard and soft fouling) | resistance to barnacle formation (hard and soft fouling) |
| --- | --- | --- | --- | --- | --- |
| zinc pyrithione | 6-10 ppm | 6-10 ppm |  |  |  |
| On1ccccc1=S.On1ccccc1=S.[Cu] [Copper pyrithione, copper pyrithione] | about 1 ppm |  | less than 1 ppm | most effective against algae |  |
| [Cu].[O]=[Cu] [cuprous oxide] |  |  |  | relatively ineffective against algae | strongly resisting barnacle formation |
| [Na+].[O-][n+]1ccccc1[S-] [sodium salt of pyrithione, sodium pyrithione] |  | about 53 % by weight |  |  |  |
